Test results published in ChEMBL document CHEMBL4613236, “Magnoflorine from Coptis chinese has the potential to treat DNCB-induced Atopic dermatits by inhibiting apoptosis of keratinocyte” (Bioorg Med Chem, 2020).
Activity calls are given as the source filed them. The rule behind the calls is not given here.

Columns and labels:
[1] = tested on: HaCaT; assay: Inhibition of TNFalpha/IFN-gamma-induced apoptosis in human HaCaT cells assessed as increase in caspase 9 expression at 500 ug/ml after 24 hrs by Western blot analysis; assay type: functional, cell-based
[2] = tested on: HaCaT; assay: Inhibition of TNF-alpha/IFN-gamma-induced apoptosis in human HaCaT cells after 24 hrs by Annexin V-FITC/propidium iodide double staining-based flow cytometry; assay type: functional, cell-based
[3] = tested on: Mus musculus; assay: Protection against DNCB-induced skin inflammation in BALB/c mouse model of atopic dermatitis assessed as number of caspase-3 positive cells at 0.1 g/ml administered topically once daily for 16 days measured post last dose by […] based light microscopic analysis (reference value: 1054 +/- 74.9); assay type: functional
[4] = tested on: HaCaT; assay: Inhibition of TNF-alpha/IFN-gamma-induced apoptosis in human HaCaT cells assessed as apoptotic rate at 1500 ug/ml after 24 hrs by Annexin V-FITC/propidium iodide double staining-based flow cytometry (reference value: 42.9%); assay type: functional; parameters: scale not given: the % may be the effect or the level left
[5] = tested on: Mus musculus; assay: Protection against DNCB-induced skin inflammation in BALB/c mouse model of atopic dermatitis assessed as reduction in skin erythema at 0.1 g/ml administered topically once daily for 16 days measured post last dose; assay type: functional, organism-based
[6] = tested on: Mus musculus; assay: Protection against DNCB-induced skin inflammation in BALB/c mouse model of atopic dermatitis assessed as reduction in skin erosion at 0.1 g/ml administered topically once daily for 16 days measured post last dose; assay type: functional, organism-based
[7] = tested on: HaCaT; assay: Inhibition of TNFalpha/IFN-gamma-induced apoptosis in human HaCaT cells assessed as increase in caspase 3 expression at 500 ug/ml after 24 hrs by Western blot analysis; assay type: functional, cell-based
[8] = tested on: Mus musculus; assay: Protection against DNCB-induced skin inflammation in BALB/c mouse model of atopic dermatitis assessed as reduction in spleen index at 0.1 g/ml administered topically once daily for 16 days measured post last dose; assay type: functional, organism-based
[9] = tested on: HaCaT; assay: Inhibition of TNFalpha/IFN-gamma-induced apoptosis in human HaCaT cells assessed as increase in caspase 7 expression at 500 ug/ml after 24 hrs by Western blot analysis; assay type: functional, cell-based
[10] = tested on: Mus musculus; assay: Protection against DNCB-induced skin inflammation in BALB/c mouse model of atopic dermatitis assessed as reduction in IL4 level at 0.1 g/ml administered topically once daily for 16 days measured post last dose by ELISA; assay type: functional, organism-based
[11] = tested on: Mus musculus; assay: Protection against DNCB-induced skin inflammation in BALB/c mouse model of atopic dermatitis assessed as reduction in hair follicle disappearance at 0.1 g/ml administered topically once daily for 16 days measured post last dose; assay type: functional, organism-based
[12] = tested on: HaCaT; assay: Cytotoxicity against human HaCaT cells assessed as reduction in cell viability after 24 hrs by MTT assay; assay type: cell-based
[13] = tested on: HaCaT; assay: Inhibition of TNFalpha/IFN-gamma-induced apoptosis in human HaCaT cells assessed as increase in mitochondrial membrane potential after 24 hrs by DiOC6 probe based flow cytometric analysis; assay type: functional, cell-based
[14] = tested on: HaCaT; assay: Inhibition of TNFalpha/IFN-gamma-induced apoptosis in human HaCaT cells assessed as increase in Bid expression at 500 ug/ml after 24 hrs by Western blot analysis; assay type: functional, cell-based
[15] = tested on: Mus musculus; assay: Protection against DNCB-induced skin inflammation in BALB/c mouse model of atopic dermatitis assessed as reduction in dermal edema at 0.1 g/ml administered topically once daily for 16 days measured post last dose; assay type: functional, organism-based
[16] = tested on: HaCaT; assay: Inhibition of TNFalpha/IFN-gamma-induced apoptosis in human HaCaT cells assessed as change in mitochondrial membrane potential at 500 ug/ml after 24 hrs by DiOC6 probe based flow cytometric analysis (reference value: 15.36 +/- 0.76); assay type: functional
[17] = Toxicity in DNCB-induced skin inflammation in BALB/c mouse model of atopic dermatitis assessed as effect on organs at 0.1 g/ml administered topically once daily for 16 days; settings: in vivo, topical_or_ocular, 384 h
[18] = tested on: HaCaT; assay: Inhibition of TNFalpha/IFN-gamma-induced apoptosis in human HaCaT cells assessed as rounded nuclei with sharp edges at 500 to 1500 ug/ml after 24 hrs by Hoechst staining based fluorescence microscopic analysis; assay type: functional, cell-based
[19] = tested on: HaCaT; assay: Induction of apoptosis in human HaCaT cells at 500 to 1500 ug/ml after 24 hrs by Hoechst staining based fluorescence microscopic analysis; assay type: cell-based
[20] = tested on: HaCaT; assay: Inhibition of TNFalpha/IFN-gamma-induced apoptosis in human HaCaT cells assessed as increase in cathepsin B expression at 500 ug/ml after 24 hrs by Western blot analysis; assay type: functional, cell-based
[21] = tested on: HaCaT; assay: Inhibition of TNFalpha/IFN-gamma-induced apoptosis in human HaCaT cells assessed as increase in cytochrome C expression at 500 ug/ml after 24 hrs by Western blot analysis; assay type: functional, cell-based
[22] = tested on: Mus musculus; assay: Protection against DNCB-induced skin inflammation in BALB/c mouse model of atopic dermatitis assessed as reduction in IgE level at 0.1 g/ml administered topically once daily for 16 days measured post last dose by ELISA; assay type: functional, organism-based
[23] = tested on: Mus musculus; assay: Protection against DNCB-induced skin inflammation in BALB/c mouse model of atopic dermatitis assessed as reduction in skin dryness at 0.1 g/ml administered topically once daily for 16 days measured post last dose; assay type: functional, organism-based
[24] = tested on: HaCaT; assay: Inhibition of TNFalpha/IFN-gamma-induced apoptosis in human HaCaT cells assessed as increase in caspase 8 expression at 500 ug/ml after 24 hrs by Western blot analysis; assay type: functional, cell-based

In the case of `COc1ccc2c(c1O)-c1c(O)c(OC)cc3c1[C@H](C2)[N+](C)(C)CC3` [MAGNOFLORINE], the inhibition [1] is reported as “Active”, the inhibition [2] is reported as “Dose-dependent effect” and the Activity [3] is reported as 509.8. For the same molecule, the Activity [4] was 22.1%, the Activity [5] was “Active” and the Activity [6] was “Active”. For the same molecule, the inhibition [7] was “Active”, the Activity [8] was “Active” and the inhibition [9] was “Active”. For the same molecule, the Activity [10] was “Active”, the Activity [11] was “Active” and the Activity [12] was “Non-Toxic”. The inhibition [13] was “Dose-dependent effect”, the inhibition [14] was “Active” and the Activity [15] was “Active”. The Activity [16] was 12.66, the Activity [17] was “Non-Toxic” and the inhibition [18] was “Active”. The Activity [19] was “Non-Toxic”, the inhibition [20] was “Active” and the inhibition [21] was “Active”. The Activity [22] was “Active”, the Activity [23] was “Active” and the inhibition [24] was “Active”.
In the case of `COc1cc2c(cc1O)CC[n+]1cc3c(OC)c(OC)ccc3cc1-2` [JATRORRHIZINE], the inhibition [2] is reported as “inactive” and the Activity [12] is reported as “Toxic”.
With `COc1cc2c(cc1OC)-c1cc3ccc(OC)c(OC)c3c[n+]1CC2` [PALMITINE] the inhibition [2] was “inactive” and the Activity [12] was “Toxic”.
For `c1c2c(cc3c1OCO3)-c1cc3ccc4c(c3c[n+]1CC2)OCO4` [COPTISINE], the inhibition [2] was “inactive” and the Activity [12] was “Toxic”.
In the case of `COc1cc2c(cc1OC)-c1cc3ccc4c(c3c[n+]1CC2)OCO4`, the inhibition [2] is reported as “inactive” and the Activity [12] is reported as “Toxic”.
In the case of `COc1ccc2cc3[n+](cc2c1OC)CCc1cc2c(cc1-3)OCO2` [BERBERINE], the inhibition [2] is reported as “inactive” and the Activity [12] is reported as “Toxic”.
In the case of `COc1cc2c(cc1O)-c1cc3ccc(OC)c(OC)c3c[n+]1CC2` [COLUMBAMINE], the inhibition [2] is reported as “inactive” and the Activity [12] is reported as “Toxic”.
